The target in test [1] is T1, human DGKα (Homo sapiens (Human), UniProt P23743). Briefly: biochemical. In a few lines: (§1)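 Full-length human DGKζ (and DGKα), C-terminal His-tagged, Sf9-expressed, with phosphatidylserine/DAG micelles in 50 mM octyl glucoside; buffer 50 mM MOPS pH 7.5, 100 mM NaCl, 10 mM MgCl2, 1 μM CaCl2, 1 mM DTT.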
The target of test [2] is T2, human DGKζ (Homo sapiens (Human), UniProt Q13574). The test can be described thus: DGKζ assay (detergent/lipid micelle substrate). The test is classed as biochemical. Particulars: detergent/lipid micelle substrate; read-out: DGKζ IC50. In a few lines:
as §1

Test [3] concerns naïve human CD8 T cells. The test can be described thus: CellTiter-Glo CD8 T Cell Proliferation Assay. The test is classed as cell-based. The following applies: Homo sapiens, T-cell. As to the method:
Frozen naïve human CD8 T cells were thawed in RPMI+10% FBS, incubated for 2 h in 37° C., and counted. The 384-well tissue culture plate was coated overnight at 4° C. with 20 μl anti-human CD3 at 0.1 μg/mL in plain RPMI, which was removed off the plate before 20 k/40 μl CD8 T cells with 0.5 μg/mL soluble anti-human CD28 were added to each well. The compounds were echoed to the cell plate immediately after the cells were plated. After 72 h incubation at 37° C. incubator, 10 μl CellTiter-glo reagent (Promega catalog number G7570) was added to each well. The plate was vigorously shaken for 5 mins, incubated at room temperature for another 15 mins and read on Envision for CD8 T cell proliferation. In analysis, 0.1 μg/mL anti-CD3 and 0.5 μg/mL anti-CD28 stimulated CD8 T cell signal was background.
For orientation: In ATP-based viability assays light output follows the ATP content of the culture.

Test [4] relates to Jurkat AP1-luciferase Reporter. Briefly: DGK AP1-Reporter Assay. The format is cell-based. Put shortly: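 Jurkat cells carrying a lentiviral AP1-luciferase reporter received 30 nl compound per well for 20 min at 37 °C and 5% CO2. They were then stimulated for 6 h with anti-CD3 solution at 0.4 μg/mL; reference wells received 4 μg/mL and unstimulated wells medium only. Readout was Steady-Glo luciferase luminescence (RLU).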
(In general: A reporter such as luciferase makes a cellular process visible.)

The target of test [5] is T1, human DGKα. The test can be described thus: DGKα LIPGLO assay (extruded liposome substrate). The test is classed as biochemical. Put shortly:
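Human full-length DGKα, His-tagged and produced in Sf9 cells, assayed at 20 nM (4× stock) on extruded liposomes of PS, 0.25 mM DAG and 2.75 mM PC, preincubated 10 min. Reaction started with 300 μM ATP (stock) and ran 1 h in MOPS pH 7.5/MgCl2/CaCl2/DTT buffer.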

The target of test [6] is T2, human DGKζ. The test can be described thus: DGKζ LIPGLO assay (extruded liposome substrate). The test is classed as biochemical. The following applies: extruded liposome substrate; read-out: DGKζ LIPGLO IC50. In a few lines: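 Sf9-derived DGKζ was premixed 10 min with PC/DAG/PS liposomes (100 nm extruded) in MOPS pH 7.5 buffer containing NaCl, MgCl2, CaCl2 and DTT.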

Test [7] relates to OT-1 antigen-specific CD8+ T cells with MC38 tumor cells. The test can be described thus: Murine Cytotoxic T Lymphocyte Assay (IFN-γ). The test is classed as cell-based, mouse. An excerpt:
An antigen-specific cytolytic T-cell (CTL) assay was developed to evaluate functionally the ability of DGKα and DGKζ inhibitors to enhance effector T cell mediated tumor cell killing activity. CD8+ T-cells isolated from the OT-1 transgenic mouse recognize antigen presenting cells, MC38, that present the ovalbumin derived peptide […]. Recognition of the cognate antigen initiates the cytolytic activity of the OT-1 antigen-specific CD8+ T cells.
Functional CTL cells were generated as follows: OT-1 splenocytes from 8-12 week old mice were isolated and expanded in the presence of the […] peptide at 1 μg/mL and mIL2 at 10 U/mL. After three days, fresh media with mIL2 U/mL was added. On day 5 of the expansion, the CD8+ T cells were isolated and ready for use. Activated CTL cells may be stored frozen for 6 months. […] The cells were washed (3×) with fresh media to remove excess peptide. Finally, CTL cells that were pretreated with DGK inhibitors for 1 hour in a 96-well U bottom plate were combined with the antigen loaded MC38 tumor cells at a 1:10 ratio. The cells were then spun at 700 rpm for 5 min and placed in an incubator overnight at 37° C. After 24 hours, the supernatant was collected for analysis of IFN-γ cytokine levels by AlphaLisa purchased from Perkin Elmer.

Test [8] has as its system pre-activated CD4 T cells and Raji cells. Briefly: Raji CD4 T Cell IL2 Assay. The test is classed as cell-based. Particulars: Homo sapiens, Raji.
Test [9] concerns naïve human CD8 T cells. Briefly: cells. Particulars: Homo sapiens, T-cell, read-out: HuCD8 INFG Normalized EC50, anti-CD3 plus anti-CD28 as baseline; 3 μM Example 40 co-stimulation as 100% activation. As to the method: Frozen naïve human CD8 T cells were thawed in ATM-V media, incubated for 2 h in 37° C., and counted. The 384-well tissue culture plate was coated overnight at 4° C. with 20 μl anti-human CD3 at 0.05 μg/mL in PBS, which was removed off the plate before 40,000 cells per 40 microliters CD8 T cells with 0.1 μg/mL soluble anti-human CD28 were added to each well. The compounds were transferred using an Echo liquid handler to the cell plate immediately after the cells were plated. After 20 h incubation at 37° C. incubator, 3 microliters per well supernatants transferred into a new 384-well white assay plate for cytokine measurement.
Interferon-γ (IFN-γ) was quantitated using the AlphaLISA kit (Cat #AL217) as described by the manufacturer manual (Perkin Elmer). The counts from each well were converted to IFN-γ concentration […].

Where [10] appears, read: detergent/lipid micelle substrate, read-out: DGKα IC50.
[11] abbreviates: Homo sapiens, Jurkat, read-out: API-Luciferase Reporter IC50, Table 3.
The mark [12] stands for this setting: DGKα IC50, detergent/lipid micelle substrate.
Where [13] appears, read: CellTiter-Glo CD8 T cell proliferation, normalized, read-out: CD8 GLO normalized EC50.
Setting [14] is: Homo sapiens, Jurkat, read-out: DGKAP1 Lucif Reporter IC50, Table 4.
The mark [15] stands for this setting: read-out: msCTL INF-γ IC50, murine CTL IFN-γ (table title reads INF-γ Whole Blood Normalized Agonist EC50).
The mark [16] stands for this setting: read-out: API-Luciferase Reporter IC50, Table 3.
The mark [17] stands for this setting: Mus musculus, MC-38, read-out: msCTL INF-γ IC50, murine CTL IFN-γ (table title reads INF-γ Whole Blood Normalized Agonist EC50).

Read-outs that look alike come from different tables or passages of the source. A value given as a limit tells only on which side of the number the result lay.

As usually defined, the IC50 is the concentration that gives 50% inhibition.

T2 sequence (Q13574 other isoform, or with tags, fused parts or gaps): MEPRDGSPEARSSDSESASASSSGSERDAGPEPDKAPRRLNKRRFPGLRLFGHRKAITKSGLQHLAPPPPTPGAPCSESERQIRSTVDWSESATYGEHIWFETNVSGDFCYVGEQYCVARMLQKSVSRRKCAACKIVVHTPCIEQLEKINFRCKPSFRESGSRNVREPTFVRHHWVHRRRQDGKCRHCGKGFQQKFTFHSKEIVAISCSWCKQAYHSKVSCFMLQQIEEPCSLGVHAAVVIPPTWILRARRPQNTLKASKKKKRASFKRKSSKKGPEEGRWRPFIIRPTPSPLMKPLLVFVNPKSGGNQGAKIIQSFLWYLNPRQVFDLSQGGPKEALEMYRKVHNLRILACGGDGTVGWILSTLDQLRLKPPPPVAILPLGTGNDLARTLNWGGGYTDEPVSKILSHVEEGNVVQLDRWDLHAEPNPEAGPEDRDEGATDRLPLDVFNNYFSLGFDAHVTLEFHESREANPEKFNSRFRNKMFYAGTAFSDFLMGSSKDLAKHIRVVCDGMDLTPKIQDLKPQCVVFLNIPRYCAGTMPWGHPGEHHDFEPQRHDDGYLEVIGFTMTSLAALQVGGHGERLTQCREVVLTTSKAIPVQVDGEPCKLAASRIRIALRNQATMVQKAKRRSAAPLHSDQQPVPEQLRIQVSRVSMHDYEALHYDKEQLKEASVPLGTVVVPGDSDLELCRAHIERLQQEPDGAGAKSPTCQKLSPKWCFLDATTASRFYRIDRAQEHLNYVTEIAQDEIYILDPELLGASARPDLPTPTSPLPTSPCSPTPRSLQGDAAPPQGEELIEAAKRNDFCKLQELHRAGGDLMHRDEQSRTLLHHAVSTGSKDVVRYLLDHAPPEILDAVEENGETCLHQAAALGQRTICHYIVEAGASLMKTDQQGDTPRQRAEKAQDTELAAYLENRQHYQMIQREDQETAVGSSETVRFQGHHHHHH
T1 sequence (P23743 other isoform, or with tags, fused parts or gaps): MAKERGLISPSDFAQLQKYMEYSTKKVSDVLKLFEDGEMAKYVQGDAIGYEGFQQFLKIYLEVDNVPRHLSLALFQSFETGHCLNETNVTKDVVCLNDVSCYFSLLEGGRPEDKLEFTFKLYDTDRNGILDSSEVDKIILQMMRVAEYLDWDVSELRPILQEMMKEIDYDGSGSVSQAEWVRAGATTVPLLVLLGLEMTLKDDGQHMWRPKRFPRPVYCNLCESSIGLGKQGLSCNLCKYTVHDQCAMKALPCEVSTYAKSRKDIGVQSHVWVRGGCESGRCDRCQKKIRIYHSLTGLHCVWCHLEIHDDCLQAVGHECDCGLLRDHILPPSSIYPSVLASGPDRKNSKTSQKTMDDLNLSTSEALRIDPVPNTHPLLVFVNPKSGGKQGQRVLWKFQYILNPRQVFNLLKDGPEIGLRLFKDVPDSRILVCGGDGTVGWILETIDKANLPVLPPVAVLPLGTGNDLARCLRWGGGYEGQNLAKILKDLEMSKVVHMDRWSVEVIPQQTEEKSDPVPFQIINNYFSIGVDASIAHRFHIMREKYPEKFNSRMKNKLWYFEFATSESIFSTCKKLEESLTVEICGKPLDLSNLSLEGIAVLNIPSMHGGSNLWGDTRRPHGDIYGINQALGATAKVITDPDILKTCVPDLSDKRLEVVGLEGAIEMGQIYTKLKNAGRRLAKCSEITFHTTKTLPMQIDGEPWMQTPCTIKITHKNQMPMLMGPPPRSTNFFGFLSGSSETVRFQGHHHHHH

Turning to `CCC(c1ccc(F)cc1)N1CCN(c2c([N+](=O)[O-])c(=O)n(C)c3ccc(C#N)nc23)CC1` (racemic) [Example 32, 8-{4-[1-(4-fluorophenyl)propyl]piperazin-1-yl}-5-methyl-7-nitro-6-oxo-5,6-dihydro-1,5-naphthyridine-2-carbonitrile], the IC50 at human DGKα [1] (setting [10]) came out at 190 nM; on human DGKζ [2], 9400 nM; in test [4] (setting [11]), 360 nM. Also, in the test with naïve human CD8 T cells [3] (read-out: CD8 GLO normalized EC50, CellTiter-Glo CD8 T cell proliferation, normalized), the EC50 came to 180 nM.

Regarding `Cn1c(=O)c([N+](=O)[O-])c(N2CCN(C(c3ccc(F)cc3)C3CC3)CC2)c2nc(C#N)ccc21` (racemic) [Example 49, 8-(4-(cyclopropyl(4-fluorophenyl)methyl)piperazin-1-yl)-5-methyl-7-nitro-6-oxo-5,6-dihydro-1,5-naphthyridine-2-carbonitrile], the 50% inhibitory concentration (IC50) against human DGKα [1] (setting [12]) was 180 nM; at human DGKζ [2], above 240000 nM; in [4] (setting [14]), 1700 nM. In the test on naïve human CD8 T cells [3] (setting [13]), the EC50 was 170 nM.

In the case of `C#CCn1c(=O)c([N+](=O)[O-])c(N2CCN(C(c3ccc(F)cc3)c3ccccc3OC)CC2)c2nc(C#N)ccc21` (racemic) [Example 129, 8-(4-((4-fluorophenyl)(2-methoxyphenyl)methyl)piperazin-1-yl)-7-nitro-6-oxo-5-(prop-2-yn-1-yl)-5,6-dihydro-1,5-naphthyridine-2-carbonitrile], the results for the IC50 (at human DGKα [1] (setting [10]); at human DGKζ [2]; in [4] (setting [14])) were 4200 nM, 180 nM and 870 nM, respectively. Besides, the EC50 in the test with naïve human CD8 T cells [3] (setting [13]) is 60 nM.

On to `COc1cc(F)ccc1C(c1ccc(F)cc1)N1CCN(c2c(C#N)c(=O)n(C)c3ccc(C#N)nc23)CC1` (racemic) [Example 405, 8-{4-[(4-fluoro-2-methoxyphenyl)(4-fluorophenyl)methyl]piperazin-1-yl}-5-methy-6-oxo-5,6-dihydro-L5-naphthyridine-2,7-dicarbonitrile], for which the concentration for half-maximal inhibition (IC50) on human DGKα [5] amounted to 560 nM; at human DGKζ [6], 860 nM. Besides, the EC50 with naïve human CD8 T cells [3] (setting [13]) stood at 20 nM.

With `C#CCn1c(=O)c([N+](=O)[O-])c(N2CCN(C(c3ccc(F)cc3)c3ccccc3O)CC2)c2nc(C#N)ccc21` (single isomer, unassigned) [Example 133, 8-(4-((4-fluorophenyl)(2-hydroxyphenyl)methyl)piperazin-1-yl)-7-nitro-6-oxo-5-(prop-2-yn-1-yl)-5,6-dihydro-1,5-naphthyridine-2-carbonitrile], the IC50 was 3300 nM on human DGKα [1] (setting [12]), 60 nM in [7] (setting [15]), 140 nM at human DGKζ [2] and 280 nM in test [4] (setting [16]).

For the compound `C#CCn1c(=O)c([N+](=O)[O-])c(N2CCN(C(c3ccc(F)cc3)c3ccccc3O)CC2)c2nc(C#N)ccc21` (single isomer, unassigned) [Example 134, 8-(4-((4-fluorophenyl)(2-hydroxyphenyl)methyl)piperazin-1-yl)-7-nitro-6-oxo-5-(prop-2-yn-1-yl)-5,6-dihydro-1,5-naphthyridine-2-carbonitrile], the IC50 on human DGKα [1] (setting [10]) turned out to be 31000 nM; in test [7] (setting [15]) it was 1140 nM; at human DGKζ [2], 4200 nM; in [4] (setting [16]), 600 nM.

Turning to `Cn1c(=O)c(C#N)c(N2CCN(Cc3ccc(O)cc3)CC2)c2nc(Cl)ccc21` [Example 362, 6-chloro-4-{4-[(4-hydroxyphenyl)methyl]piperazin-1-yl}-1-methyl-2-oxo-1,2-dihydro-1,5-naphthyridine-3-carbonitrile], the IC50 on human DGKα [1] (setting [10]) is 69 nM; in [7] (setting [17]) it was 10000 nM; at human DGKζ [2], above 240000 nM; in test [4] (setting [11]), 8370 nM; in test [8] it was above 100000 nM.

As for `Cc1cccc(CN2CCN(c3c(C#N)c(=O)n(C)c4ccc(Cl)nc34)CC2)c1` [Example 385, 6-chloro-1-methyl-1-{4-4[(3-methylphenyl)methyl]piperazin-1-yl}-2-oxo-1,2-dihydro-1,5-naphthyridine-3-carbonitrile], the IC50 was found to be 350 nM at human DGKα [1] (setting [10]), 4090 nM in test [7] (setting [17]), 150000 nM at human DGKζ [2] and 60 nM in test [4] (setting [11]).

For `CC(c1ccc(F)cc1)N1CCN(c2c(C#N)c(=O)n(C)c3ccc(Cl)nc23)CC1` (stereo not shown) [Example 387A, 6-chloro-4-{4-[1-(4-fluorophenyl)ethyl]piperazin-1-yl}-1-methyl-2-oxo-1,2-dihydro-1,5-naphthyridine-3-carbonitrile], the EC50 in the test on naïve human CD8 T cells [3] (setting [13]) is 10000 nM. In addition, the IC50 in test [4] (setting [14]) was determined as 10000 nM.

On to `COc1cc(F)ccc1C(c1ccc(F)cc1)N1CCN(c2cc(=O)n(C)c3ccc(C#N)nc23)CC1` (stereo not shown) [Example 392, 8-{4-[(4-fluoro-2-methoxyphenyl)(4-fluorophenyl)methyl]piperazin-1-yl}-5-methyl-6-oxo-5,6-dihydro-1,5-naphthyridine-2-carbonitrile], for which the IC50 on human DGKα [5] is above 240000 nM; on human DGKζ [6] it was 2300 nM; in [7] (setting [17]), 1850 nM. In the test on naïve human CD8 T cells [9], the EC50 came to 230 nM.

As to `Cn1c(=O)c([N+](=O)[O-])c(N2CCN([C@@H](c3ccccc3)c3ccc(Cl)cc3)CC2)c2nc(C#N)ccc21` [Example 399, 8-{4-[(S)-(4-chlorophenyl)(phenyl)methyl]piperazin-1-yl}-5-methyl-7-nitro-6-oxo-5,6-dihydro-1,5-naphthyridine-2-carbonitrile], the figures for the IC50 (on human DGKα [5]; at human DGKζ [6]; in test [7] (setting [17])) were 6400 nM, 160 nM and 410 nM, respectively. The EC50 in the test with naïve human CD8 T cells [9] is 20 nM.

Consider `Cn1c(=O)c(C#N)c(N2CCN([C@@H](c3ccccc3)c3ccc(Cl)cc3)CC2)c2nc(Br)ccc21` [Example 428, 6-bromo-4-{4-[(S)-(4-chlorophenyl)(phenyl)methyl]piperazin-1-yl}-1-methyl-2-oxo-1,2-dihydro-1,5-naphthyridine-3-carbonitrile], for which the figures for the IC50 (against human DGKα [5]; on human DGKζ [6]; in test [7] (setting [17])) were 10000 nM, 5200 nM and 590 nM, respectively. Moreover, in the test with naïve human CD8 T cells [9], the EC50 turned out to be 30 nM.

Source of the values: US11866430B2, “Naphthyridinone compounds useful as T cell activators” (priority 2018, dated 2024).
